Experimental data published in publication PMC8389922, “First-in-Class Cyclic Temporin L Analogue: Design, Synthesis, and Antimicrobial Assessment” (Journal of Medicinal Chemistry, 2021).
Values after ≈ are worked out from the molar mass of the structure shown. Bridge positions count the residues as written; N and C are the ends. Square brackets hold non-standard residues; d marks the D form. Peptide text beside a SMILES is read from it.

Legend:
[1] = circular dichroism; conditions: water; pH ns; 25 °C; 50 uM
[2] = system: S. aureus ATCC 25923; assay type: cell-based, Staphylococcus aureus
Protocol: (§1) The antimicrobial activity of peptides 9–26 was assessed against a range of reference bacterial strains such as S. aureus ATCC 25923, Staphylococcus epidermidis ATCC 12228, Bacillus megaterium Bm11, E. coli ATCC 25922, P. aeruginosa ATCC 27853, and A. baumannii ATCC 19606 by the broth microdilution assay to determine the minimal growth inhibitory concentration (MIC, Table 1).[59] First, we evaluated the effects produced by the lactam bridge between Lys and Glu residues placed at different positions along the peptide sequence of reference 9. […] When the i,i+7 cyclization strategy was applied (20–23), a dramatic decrease of bacterial inhibition activity was observed. Specifically, the peptides 20, 22, and 23 only affected the microbial growth of the Gram-positive B. megaterium Bm11, at 12.5 μM. […] Peptide 25, which differs from 9 by the presence of an olefin bridge rather than lactam one, dramatically lost the activity (MIC > 100 μM) vs both Gram-positive and Gram-negative strains.
(§2) The determination of MICs was conducted as previously reported.[61] Aliquots of 50 μL of bacterial culture appropriately diluted were added to each well of a 96-well plate to reach a final cell density of 1 × 10^6 CFU/mL and a final peptide concentration ranging from 100 to 0.78 μM (final volume 100 μL).

[3] = system: S. epidermidis ATCC 12228; assay type: cell-based, Staphylococcus epidermidis
Protocol: as §1, §2

[4] = system: B. megaterium Bm11; assay type: cell-based, Bacillus megaterium
Protocol: as §1, §2

[5] = system: E. coli ATCC 25922; assay type: cell-based, Escherichia coli
Protocol: as §1, §2

[6] = system: P. aeruginosa ATCC 27853; assay type: cell-based, Pseudomonas aeruginosa
Protocol: as §1, §2

[7] = system: A. baumannii ATCC 19606; assay type: cell-based, Acinetobacter baumannii
Protocol: as §1, §2

[8] = CD spectroscopy, secondary structure content (DichroWeb); assay type: physicochemical
Protocol: The secondary structures of the linear peptide 9 and its stapled analogues 12, 17, and 24–26 were explored by circular dichroism (CD). CD spectroscopy studies were performed in water, and SDS or DPC micelles (20 mM) were used as mimics of the bacterial or mammalian membranes, respectively.[60]
The secondary structure content was predicted based on the CD spectra from 190 to 260 nm using the online server for protein secondary structure analyses, DichroWeb.[61] […] The hydrocarbon-bridged peptide 25 was slightly helical and structured in water, with weak ellipticity at 220 nm. Peptide 25 contains ∼13% regular helix and ∼10% distorted helix, according to the DichroWeb prediction.
All spectra were measured in the 260–190 nm spectral range, 1 nm bandwidth, 4 accumulations, and 100 nm/min scanning speed.[60] Each peptide was dissolved in water to prepare a 1 mM peptide stock solution. The CD spectra were performed in water, in SDS (20 mM) and in DPC (20 mM) using a peptide concentration of 50 μM. The secondary structure content of the peptides was predicted using the online server for protein secondary structure analyses DichroWeb.[61] Input and output units and the wavelength step were θ (mdeg) and 1.0 nm, respectively. The algorithm used was CONTIN-LL,[83] and reference database was set-7. When we have NRMSD > 0.100, we used the CDSSTR method.[83]

[9] = system: HaCaT cells (human immortalized keratinocytes); experiment: Cytotoxicity, MTT assay; assay type: cell-based; conditions: vs untreated control
Protocol: In particular, the cytotoxicity was evaluated by the 3-(4,5-dimethylthiazol-2-yl)-2,5-diphenyltetrazolium bromide (MTT) assay and is expressed as the percentage of viability of peptide-treated cells compared to that of untreated control cells. As expected, after 2 and 24 h treatments, the cell viability decreased in a concentration-dependent manner for all peptides (Figure 2).
Figure 2 Viability of peptide-treated HaCaT cells evaluated by MTT assay at 2 h (a) and 24 h (b). All data are expressed as a percentage with respect to the untreated control cells and are the mean of three independent experiments ± standard error of the mean (SEM).
The human immortalized keratinocytes HaCaT cells (AddexBio, San Diego, CA) were cultured in Dulbecco’s modified Eagle’s medium containing 4 mM glutamine (DMEMg), supplemented with 10% heat-inactivated fetal bovine serum (FBS) and 0.1 mg/mL of penicillin and streptomycin, at 37 °C and 5% CO2, in 25 or 75 cm^2 flasks.
The quantification of cell viability was performed by the in vitro MTT [3-(4,5-dimethylthiazol-2-yl)-2,5-diphenyltetrazolium bromide] assay, as previously reported,[77] measuring the conversion of the soluble yellow dye MTT to insoluble purple formazan by mitochondrial dehydrogenases. More precisely, 4 × 10^4 HaCaT cells, suspended in DMEMg supplemented with 2% FBS without antibiotics, were plated in each well of the 96-well plate. After overnight incubation at 37 °C and 5% CO2, the medium of each well was replaced by DMEMg containing the peptide at different concentrations, as indicated. Controls were HaCaT cells not treated with the peptide. After 2 and 24 h of incubation at 37 °C and 5% CO2, the medium was discarded; 0.5 mg/mL of MTT in Hank’s buffer was added to each well, and the plate was incubated for further 4 h. Acidified isopropanol was then added to dissolve formazan crystals, and the absorbance of each well at 570 nm was measured using a microplate reader (Infinite M200; Tecan, Salzburg, Austria). The purple color intensity is directly proportional to the number of viable cells, which was expressed as a percentage compared to that of untreated control cells (100%).

[10] = CD in DPC micelles (20 mM), peptide 50 μM, 25 °C, DichroWeb
[11] = CD in SDS micelles (20 mM), peptide 50 μM, 25 °C, DichroWeb
[12] = CD in water, peptide 50 μM, 25 °C, DichroWeb
[13] = CD in water, peptide 50 μM, 25 °C, DichroWeb (CONTIN-LL, set-7; CDSSTR if NRMSD > 0.100)

Compound	helicity [1]	MIC S. aureus ATCC 25923 [2]	MIC S. epidermidis ATCC 12228 [3]	MIC B. megaterium Bm11 [4]	MIC E. coli ATCC 25922 [5]	MIC P. aeruginosa ATCC 27853 [6]	MIC A. baumannii ATCC 19606 [7]	helix-1 (regular α-helix) [8, 10]	helix-2 (distorted α-helix) [8, 10]	random [8, 10]	β-strand-1 (regular β-strand) [8, 10]	β-strand-2 (distorted β-strand) [8, 10]	β-turn [8, 10]	helix-1 (regular α-helix) [8, 11]	helix-2 (distorted α-helix) [8, 11]	random [8, 11]	β-strand-1 (regular β-strand) [8, 11]	β-strand-2 (distorted β-strand) [8, 11]	β-turn [8, 11]	helix-2 (distorted α-helix) [8, 12]	also measured
CC[C@H](C)[C@H](NC(=O)[C@H](CCCNC(=N)N)NC(=O)[C@]1(C)CCCC=CCCC[C@](C)(NC(=O)[C@H](Cc2ccccc2)NC(=O)[C@H](Cc2c[nH]c3ccccc23)NC(=O)[C@@H]2CCCN2C(=O)[C@@H](NC(=O)[C@@H](N)Cc2ccccc2)C(C)C)C(=O)N[C@@H](CCCCN)C(=O)N[C@@H](Cc2ccccc2)C(=O)N[C@H](CC(C)C)C(=O)N1)C(=O)N[C@@H](CC(C)C)C(N)=O [compound 25]	23%	>100 µM	>100 µM	100 µM (≈ 172 µg/mL)	>100 µM	>100 µM	>100 µM	54%	34%	0%	0%	7%	5%	41%	22%	28%	0%	4%	5%	10%	aggregation in water (shape of CD spectrum) ([8]; CD in water, peptide 50 μM, 25 °C): form α-helical aggregates; random [8, 12]: 41%; β-strand-1 (regular β-strand) [8, 12]: 12%; β-strand-2 (distorted β-strand) [8, 12]: 8%; β-turn [8, 12]: 16%; helix-1 (regular α-helix) [8, 13]: 13%
CC[C@H](C)[C@H](NC(=O)[C@H](CCCNC(=N)N)NC(=O)[C@@H]1CCCCNC(=O)CC[C@H](NC(=O)[C@H](Cc2ccccc2)NC(=O)[C@H](Cc2c[nH]c3ccccc23)NC(=O)[C@@H]2CCCN2C(=O)[C@@H](NC(=O)[C@@H](N)Cc2ccccc2)C(C)C)C(=O)N[C@@H](CCCCN)C(=O)N[C@@H](Cc2ccccc2)C(=O)N[C@H](CC(C)C)C(=O)N1)C(=O)N[C@@H](CC(C)C)C(N)=O [compound 24] (H-FVPWFEKF[dL]KRIL-NH2; lactam 6-10)	7%	3.12 µM (≈ 5.32 µg/mL)	1.56 µM (≈ 2.66 µg/mL)	1.56 µM (≈ 2.66 µg/mL)	25 µM (≈ 42.6 µg/mL)	>100 µM	3.12 µM (≈ 5.32 µg/mL)	69%	23%	0%	0%	3%	4%	59%	18%	0%	11%	5%	7%	6%	HaCaT cell viability ([9]; 2 h treatment, 25 μM, mean of three independent experiments): 60–70%; HaCaT cell viability ([9]; 2 h treatment, 50 μM, mean of three independent experiments): less than 40%; HaCaT cell viability ([9]; 24 h treatment (sentence continues from 50 μM)): less than 20%; helix percentage (total) in SDS solution ([8]; CD in SDS micelles (20 mM), DichroWeb, regular plus distorted helix): about 80%; random [8, 12]: 50%; β-strand-1 (regular β-strand) [8, 12]: 16%; β-strand-2 (distorted β-strand) [8, 12]: 9%; β-turn [8, 12]: 17%; helix-1 (regular α-helix) [8, 13]: 1%
